Measured values published in patent US20040167131A1, “Inhibitors of factor Xa and other serine proteases involved in the coagulation cascade” (Pfizer Inc., priority 2002, published 2004).

Molecular target: T1, human factor Xa (Homo sapiens, UniProt P00742)
T1 construct: purchased Enzyme Research Laboratories
Assay: Determination of Factor Xa IC50 (cleavage of fluorogenic substrate F-S2765)
Format: biochemical
Settings: 3 pM human factor Xa; read-out: FXa 3 pM IC50
Description: The ability of compounds to act as inhibitors of human factor Xa catalytic activity was assessed by determination of that concentration of test substance that inhibited by 50% (IC50) the ability of human factor Xa to cleave the fluorogenic substrate F-S2765 (N-α-Z-D-Arg-Gly-Arg-pNA HCl, California Peptide Research). […] The IC50 was determined at 3 pM and/or 30 pM concentrations of human factor Xa (Enzyme Research Laboratories). These concentrations were achieved by diluting a stock solution of human factor Xa in the appropriate amount of buffer containing 10 mM HEPES, 150 mM NaCl, and 0.1% BSA at pH 7.4 (HBSA buffer). Accordingly, 73 μL of the factor Xa/buffer solution was added to 2.5 μL of DMSO-reconstituted compound and incubated for 55 minutes at room temperature. After warming to 37° C. for am additional 5 minutes, 50 μL of rewarmed substrate was added and the IC50 determined by monitoring the increase in absorbance at 390 nm excitation/460 nm emission (455 nm cutoff) in a fluorometric plate reader or 30 minutes.

T1 sequence (P00742 235-488 limits assumed): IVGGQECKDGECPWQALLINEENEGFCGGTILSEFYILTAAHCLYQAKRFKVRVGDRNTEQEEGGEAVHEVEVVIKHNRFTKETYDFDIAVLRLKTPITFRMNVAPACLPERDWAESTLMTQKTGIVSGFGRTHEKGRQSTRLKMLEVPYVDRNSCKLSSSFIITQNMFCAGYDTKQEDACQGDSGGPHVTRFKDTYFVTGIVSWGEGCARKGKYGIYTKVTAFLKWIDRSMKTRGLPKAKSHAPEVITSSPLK
T1 sequence (P00742 41-179 partner limits assumed): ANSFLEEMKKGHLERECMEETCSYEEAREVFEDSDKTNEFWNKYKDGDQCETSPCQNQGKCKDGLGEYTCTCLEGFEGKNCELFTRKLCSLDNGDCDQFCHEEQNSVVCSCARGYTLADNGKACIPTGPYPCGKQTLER

IC50	SMILES
22 nM	CS(=O)(=O)c1ccccc1-c1ccc(NC(=O)C2(NC(=O)Nc3ccc(Cl)cc3)CC2)c(F)c1 [Example 3, 1-[3-(4-Chloro-phenyl)-ureido]-cyclopropanecarboxylic acid (3-fluoro-2′-methanesulfonyl-biphenyl-4-yl)-amide]
33 nM	CS(=O)(=O)c1ccccc1-c1ccc(NC(=O)C2(NC(=O)Nc3ccc(Cl)cc3)CC2)cc1 [Example 2, 1-[3-(4-Chloro-phenyl)-ureido]-cyclopropanecarboxylic acid (2′-methanesulfonyl-biphenyl-4-yl)-amide]
16 nM	CS(=O)(=O)c1ccccc1-c1ccc(NC(=O)C2(NC(=O)Nc3ccc(Cl)cc3)CCCCC2)cc1 [Example 10, 1-[3-(4-Chloro-phenyl)-ureido]-cyclohexanecarboxylic acid (2′-methanesulfonyl-biphenyl-4-yl)-amide]
20 nM	CC(C)(NC(=O)Nc1ccc(Cl)cc1)C(=O)Nc1ccc(-c2ccccc2S(C)(=O)=O)cc1F [Example 7, 2-[3-(4-Chloro-phenyl)-ureido]-N-(3-fluoro-2′-methanesulfonyl-biphenyl-4-yl)-2-methyl-propionamide]

Same assay, conditions: 30 pM human factor Xa; compound @ 1 μM

FxXa 30 pM, % @ 1 μM	SMILES
17% @ 1 μM	CN(C(=O)NCC(=O)Nc1ccc(-c2ccccc2S(C)(=O)=O)cc1F)c1ccc(Cl)cc1 [Example 13, 2-[3-(4-Chloro-phenyl)-3-methyl-ureido]-N-(3-fluoro-2′-methanesulfonyl-biphenyl-4-yl)-acetamide]
18% @ 1 μM	CN(CC(=O)Nc1ccc(-c2ccccc2S(C)(=O)=O)cc1F)C(=O)N(C)c1ccc(Cl)cc1 [Example 14, 2-[3-(4-Chloro-phenyl)-1,3-dimethyl-ureido]-N-(3-fluoro-2′-methanesulfonyl-biphenyl-4-yl)-acetamide]
13.7% @ 1 μM	CN(C)CCN(CC(=O)Nc1ccc(-c2ccccc2S(C)(=O)=O)cc1F)C(=O)Nc1ccc(Cl)cc1 [Example 26, 2-[3-(4-Chloro-phenyl)-1-(2-dimethylamino-ethyl)-ureido]-N-(3-fluoro-2′-methanesulfonyl-biphenyl-4-yl)-acetamide]

Same assay, conditions: 30 pM human factor Xa; read-out: FxXa 30 pM IC50

SMILES	IC50
CC(C)(NC(=O)Nc1ccc(Cl)cc1)C(=O)Nc1ccc(-c2ccccc2S(N)(=O)=O)cc1F [Example 9]	44 nM
O=C(Nc1ccc(Cl)cc1)N[C@@]1(C(=O)Nc2ccc(N3CCCCC3=O)cc2F)C[C@@H]1CO [Example 19, (1S,2S)-1-[3-(4-Chloro-phenyl)-ureido]-2-hydroxymethyl-cyclopropanecarboxylic acid [2-fluoro-4-(2-oxo-piperidin-1-yl)-phenyl]-amide]	129 nM
CC(C)CN(CC(=O)Nc1ccc(-c2ccccc2S(C)(=O)=O)cc1F)C(=O)Nc1ccc(Cl)cc1 [Example 25, 2-[3-(4-Chloro-phenyl)-1-isobutyl-ureido]-N-(3-fluoro-2′-methanesulfonyl-biphenyl-4-yl)-acetamide]	105 nM
CS(=O)(=O)c1ccccc1-c1ccc(NC(=O)[C@@]2(NC(=O)Nc3ccc(Cl)cc3)C[C@@H]2CO)c(F)c1 [Example 20, (1R,2S)-1-[3-(4-Chloro-phenyl)-ureido]-2-hydroxymethyl-cyclopropanecarboxylic acid (3-fluoro-2′-methanesulfonyl-biphenyl-4-yl)-amide]	35 nM
NS(=O)(=O)c1ccccc1-c1ccc(NC(=O)C(CO)(CO)NC(=O)Nc2ccc(Cl)cc2)cc1 [Example 15, 2-[3-(4-Chloro-phenyl)-ureido]-3-hydroxy-2-hydroxymethyl-N-(2′-sulfamoyl-biphenyl-4-yl)-propionamide]	29 nM
CC(C)(NC(=O)Nc1ccc(Cl)cn1)C(=O)Nc1ccc(-c2ccccc2S(C)(=O)=O)cc1F [Example 8, 2-[3-(5-Chloro-pyridin-2-yl)-ureido]-N-(3-fluoro-2′-methanesulfonyl-biphenyl-4-yl)-2-methyl-propionamide]	287 nM
COCCN(CC(=O)Nc1ccc(N2CCCCC2=O)cc1F)C(=O)Nc1ccc(Cl)cc1 [Example 29, 2-[3-(4-Chloro-phenyl)-1-(2-methoxy-ethyl)-ureido]-N-[2-fluoro-4-(2-oxo-piperidin-1-yl)-phenyl]-acetamide]	224 nM

Next, values leading:

IC50	SMILES
192 nM	NS(=O)(=O)c1ccccc1-c1ccc(NC(=O)C2(NC(=O)Nc3ccc(Cl)cn3)CC2)c(F)c1 [Example 6, 1-[3-(5-Chloro-pyridin-2-yl)-ureido]-cyclopropanecarboxylic acid (3-fluoro-2′-sulfamoyl-biphenyl-4-yl)-amide]
65 nM	NS(=O)(=O)c1ccccc1-c1ccc(NC(=O)C2(NC(=O)Nc3ccc(Cl)cc3)CCSCC2)c(F)c1 [Example 17, 4-[3-(4-Chloro-phenyl)-ureido]-tetrahydro-thiopyran-4-carboxylic acid (3-fluoro-2′-sulfamoyl-biphenyl-4-yl)-amide]
140 nM	O=C(Nc1ccc(Cl)cc1)N[C@]1(C(=O)Nc2ccc(N3CCCCC3=O)cc2F)C[C@@H]1CO [Example 21, (1R,2S)-1-[3-(4-Chloro-phenyl)-ureido]-2-hydroxymethyl-cyclopropanecarboxylic acid [2-fluoro-4-(2-oxo-piperidin-1-yl)-phenyl]-amide]
20 nM	CN(CC(=O)Nc1ccc(-c2ccccc2S(C)(=O)=O)cc1F)C(=O)Nc1ccc(Cl)cc1 [Example 12, 2-[3-(4-Chloro-phenyl)-1-methyl-ureido]-N-(3-fluoro-2′-methanesulfonyl-biphenyl-4-yl)-acetamide]
26 nM	COCCN(CC(=O)Nc1ccc(-c2ccccc2S(C)(=O)=O)cc1F)C(=O)Nc1ccc(Cl)cc1 [Example 24, 2-[3-(4-Chloro-phenyl)-1-(2-methoxy-ethyl)-ureido]-N-(3-fluoro-2′-methanesulfonyl-biphenyl-4-yl)-acetamide]
36 nM	NS(=O)(=O)c1ccccc1-c1ccc(NC(=O)C2(NC(=O)Nc3ccc(Cl)cc3)CC2)c(F)c1 [Example 5, 1-[3-(4-Chloro-phenyl)-ureido]-cyclopropanecarboxylic acid (3-fluoro-2′-sulfamoyl-biphenyl-4-yl)-amide]
66 nM	NS(=O)(=O)c1ccccc1-c1ccc(NC(=O)C2(NC(=O)Nc3ccc(Cl)cc3)CC=CC2)c(F)c1 [Example 11, 1-[3-(4-Chloro-phenyl)-ureido]-cyclopent-3-enecarboxylic acid (3-fluoro-2′-sulfamoyl-biphenyl-4-yl)-amide]
255 nM	CS(=O)(=O)c1ccccc1-c1ccc(NC(=O)C2(NC(=O)Nc3ccc(Cl)cn3)CC2)c(F)c1 [Example 4, 1-[3-(5-Chloro-pyridin-2-yl)-ureido]-cyclopropanecarboxylic acid (3-fluoro-2′-methanesulfonyl-biphenyl-4-yl)-amide]
175 nM	CS(=O)(=O)c1ccccc1-c1ccc(NC(=O)C2(NC(=O)Nc3ccc(Cl)cc3)CCN(C(=O)OCc3ccccc3)C2)c(F)c1 (stereo not drawn) [Example 22, 3-[3-(4-Chloro-phenyl)-ureido]-3-(3-fluoro-2′-methanesulfonyl-biphenyl-4-ylcarbamoyl)-pyrrolidine-1-carboxylic acid benzyl ester]
80 nM	COc1ccc(CN(CC(=O)Nc2ccc(-c3ccccc3S(C)(=O)=O)cc2F)C(=O)Nc2ccc(Cl)cc2)cc1 [Example 28, 2-[3-(4-Chloro-phenyl)-1-(4-methoxy-benzyl)ureido]-N-(3-fluoro-2′-methanesulfonyl-biphenyl-4-yl)-acetamide]
